Measurements: patent US9156877B2, “17-hydroxy-17-pentafluorethyl-estra-4,9(10)-dien-11-benzylidene derivatives, methods for the production thereof and use thereof for treating diseases” (Bayer Intellectual Property GmbH, priority 2009, dated 2015)

Experiments:
[1] = molecular target: T1, human progesterone receptor A (Homo sapiens, UniProt P06401); experiment: Progesterone receptor-antagonistic action in stably transfected SK-N-MC cells with MMTV-LUC reporter (PR-A); format: cell-based; conditions: antagonistic potency against 0.1 nmol/l promegestone, 24 hours, luciferase
T1 construct: expressed in transfected cells; host or cells: SK-N-MC human neuroblastoma cells, stably transfected with pRChPR-A-neo and pMMTV-LUC
T1 sequence (P06401 1-769 isoform P06401-2): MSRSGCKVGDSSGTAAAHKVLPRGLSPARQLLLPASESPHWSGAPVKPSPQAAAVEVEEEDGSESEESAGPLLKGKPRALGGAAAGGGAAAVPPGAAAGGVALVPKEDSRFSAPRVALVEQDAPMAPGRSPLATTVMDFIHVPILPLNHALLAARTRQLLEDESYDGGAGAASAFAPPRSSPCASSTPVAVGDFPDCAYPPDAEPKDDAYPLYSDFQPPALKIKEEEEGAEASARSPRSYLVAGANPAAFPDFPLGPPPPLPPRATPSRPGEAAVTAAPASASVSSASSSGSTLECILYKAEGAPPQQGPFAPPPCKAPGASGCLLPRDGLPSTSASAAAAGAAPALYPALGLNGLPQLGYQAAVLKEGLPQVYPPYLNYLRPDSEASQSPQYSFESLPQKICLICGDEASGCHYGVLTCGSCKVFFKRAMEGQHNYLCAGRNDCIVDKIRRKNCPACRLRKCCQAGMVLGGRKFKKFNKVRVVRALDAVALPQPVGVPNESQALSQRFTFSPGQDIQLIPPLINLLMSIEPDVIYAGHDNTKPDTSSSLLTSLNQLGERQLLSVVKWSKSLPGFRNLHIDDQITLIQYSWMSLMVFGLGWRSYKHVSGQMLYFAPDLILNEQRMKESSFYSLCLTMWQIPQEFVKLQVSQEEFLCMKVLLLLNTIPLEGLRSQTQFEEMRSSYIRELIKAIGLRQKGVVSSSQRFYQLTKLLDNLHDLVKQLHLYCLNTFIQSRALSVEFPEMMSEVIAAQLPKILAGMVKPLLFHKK
Experimental: (§1) Determination of Progesterone Receptor-Antagonistic Action in Stable Transfectants of Human Neuroblastoma Cells (SK-N-MC Cells) with the Human Progesterone A or Progesterone B Receptor and an MN-LUC Reporter Construct
(§2) SK-N-MC cells (human neuroblastoma cells) which have been stably transfected with plasmids expressing the human progesterone receptor B (pRChPR-B-neo) or the human progesterone receptor A (pRChPR-A-neo) and a reporter construct (pMMTV-LUC) were incubated for 24 hours either in the absence (negative control) or in the presence of ascending amounts of the particular test compound (0.01 nmol/l, 0.1 nmol/l, 1 nmol/l, 10 nmol/l, 100 nmol/l and […]), in order to determine the agonistic efficacy. As a positive control of the reporter gene induction, the cells were treated with the synthetic gestagen promegestone (0.01 nmol/l, 0.1 nmol/l, 1 nmol/l, 10 nmol/l, 100 nmol/l and […]). To determine the antagonistic activity, the cells were treated with 0.1 nmol/l promegestone and additionally with ascending amounts of the particular test compound (0.01 nmol/l, 0.1 nmol/l, 1 nmol/l, 10 nmol/l, 100 nmol/l and […]). The activity of the reporter gene LUC (LUC=luciferase) was determined in the cell lysates and measured as RLU (relative light units). All measurements are reported as % efficacy and as EC50 and IC50 concentrations.

[2] = molecular target: T2, human progesterone receptor B (Homo sapiens, UniProt P06401); experiment: Progesterone receptor-antagonistic action in stably transfected SK-N-MC cells with MMTV-LUC reporter (PR-B); format: cell-based; conditions: antagonistic potency against 0.1 nmol/l promegestone, 24 hours, luciferase
T2 construct: expressed in transfected cells; host or cells: SK-N-MC human neuroblastoma cells, stably transfected with pRChPR-B-neo and pMMTV-LUC
T2 sequence (P06401 1-933): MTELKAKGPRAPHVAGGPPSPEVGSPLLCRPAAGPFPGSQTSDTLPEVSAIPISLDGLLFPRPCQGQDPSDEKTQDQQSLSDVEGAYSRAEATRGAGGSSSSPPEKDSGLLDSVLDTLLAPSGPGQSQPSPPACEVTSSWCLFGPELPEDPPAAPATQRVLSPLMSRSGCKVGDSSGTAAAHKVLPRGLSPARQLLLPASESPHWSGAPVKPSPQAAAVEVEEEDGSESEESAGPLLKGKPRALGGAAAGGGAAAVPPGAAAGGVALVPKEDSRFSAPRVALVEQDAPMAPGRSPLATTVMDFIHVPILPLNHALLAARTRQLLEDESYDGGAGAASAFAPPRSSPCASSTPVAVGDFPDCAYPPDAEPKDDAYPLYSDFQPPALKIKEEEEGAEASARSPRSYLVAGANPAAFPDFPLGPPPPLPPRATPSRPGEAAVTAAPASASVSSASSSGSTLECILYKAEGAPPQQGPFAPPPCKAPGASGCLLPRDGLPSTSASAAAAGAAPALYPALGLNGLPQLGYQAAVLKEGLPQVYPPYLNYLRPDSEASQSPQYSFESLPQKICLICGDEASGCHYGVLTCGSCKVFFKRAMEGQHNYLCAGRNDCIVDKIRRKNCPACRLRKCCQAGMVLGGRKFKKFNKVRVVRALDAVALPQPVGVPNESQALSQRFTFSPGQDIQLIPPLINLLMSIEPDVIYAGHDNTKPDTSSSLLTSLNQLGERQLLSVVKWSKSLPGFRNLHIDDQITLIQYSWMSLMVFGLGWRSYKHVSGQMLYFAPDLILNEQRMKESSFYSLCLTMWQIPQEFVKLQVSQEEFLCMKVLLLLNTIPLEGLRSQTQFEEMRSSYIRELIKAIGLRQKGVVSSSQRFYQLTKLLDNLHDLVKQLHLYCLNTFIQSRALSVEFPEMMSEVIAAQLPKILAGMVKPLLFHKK
Experimental: as §1, §2

| SMILES | IC50 [1] | IC50 [2] |
| --- | --- | --- |
| C[C@]12C[C@H](c3ccc(/C=C/CNC(=O)Nc4ccc(C(=O)O)cc4)cc3)C3=C4CCC(=O)C=C4CC[C@H]3[C@@H]1CC[C@@]2(O)C(F)(F)C(F)(F)F [Example 56, 4-(3-{(E)-3-[4-((8S,11R,13S,14S,17S)-17-hydroxy-13-methyl-3-oxo-17-pentafluoroethyl-2,3,6,7,8,11,12,13,14,15,16,17-dodecahydro-1H-cyclopenta[a]phenanthren-11-yl)phenyl]allyl}ureido)benzoic acid] | 0.9 nM | 1.9 nM |
| C[C@]12C[C@H](c3ccc(/C=N/OCC(=O)O)cc3)C3=C4CCC(=O)C=C4CC[C@H]3[C@@H]1CC[C@@]2(O)C(F)(F)C(F)(F)F [Example 34, [1-[4-((8S,11R,13S,14S,17S)-17-hydroxy-13-methyl-3-oxo-17-pentafluoroethyl-2,3,6,7,8,11,12,13,14,15,16,17-dodecahydro-1H-cyclopenta[a]phenanthren-11-yl)phenyl]meth-(E)-ylideneaminooxy]acetic acid] | 3.9 nM | 2.8 nM |
| Cc1noc(C)c1NC(=O)NC/C=C/c1ccc([C@H]2C[C@@]3(C)[C@@H](CC[C@@]3(O)C(F)(F)C(F)(F)F)[C@@H]3CCC4=CC(=O)CCC4=C32)cc1 [Example 48, 1-(3,5-dimethylisoxazol-4-yl)-3-{(E)-3-[4-((8S,11R,13S,14S,17S)-17-hydroxy-13-methyl-3-oxo-17-pentafluoroethyl-2,3,6,7,8,11,12,13,14,15,16,17-dodecahydro-1H-cyclopenta[a]phenanthren-11-yl)phenyl]allyl}urea] | 0.09 nM | 0.03 nM |
| C[C@]12C[C@H](c3ccc(/C=C/CNC(=O)NCc4ccccc4)cc3)C3=C4CCC(=O)C=C4CC[C@H]3[C@@H]1CC[C@@]2(O)C(F)(F)C(F)(F)F [Example 46, 1-benzyl-3-{(E)-3-[4-((8S,11R,13S,14S,17S)-17-hydroxy-13-methyl-3-oxo-17-pentafluoroethyl-2,3,6,7,8,11,12,13,14,15,16,17-dodecahydro-1H-cyclopenta[a]phenanthren-11-yl)phenyl]allyl}urea] | 0.07 nM | 0.09 nM |
| Cc1nc2cc(/C=C/c3cccc([C@H]4C[C@@]5(C)[C@@H](CC[C@@]5(O)C(F)(F)C(F)(F)F)[C@@H]5CCC6=CC(=O)CCC6=C54)c3)ccc2s1 [Example 25, (8S,11R,13S,14S,17S)-17-hydroxy-13-methyl-11-{3-[(E)-2-(2-methylbenzothiazol-5-yl)vinyl]phenyl}-17-pentafluoroethyl-1,2,6,7,8,11,12,13,14,15,16,17-dodecahydrocyclopenta[a]phenanthren-3-one] | 1 nM | 2 nM |
| COC(=O)C(C/C=C/c1ccc([C@H]2C[C@@]3(C)[C@@H](CC[C@@]3(O)C(F)(F)C(F)(F)F)[C@@H]3CCC4=CC(=O)CCC4=C32)cc1)C(=O)OC [Example 4, 2-{(E)-3-[4-((8S,11R,13S,14S,17S)-17-hydroxy-13-methyl-3-oxo-17-pentafluoroethyl-2,3,6,7,8,11,12,13,14,15,16,17-dodecahydro-1H-cyclopenta[a]phenanthren-11-yl)phenyl]allyl}malonic acid dimethyl ester] | 1 nM | 1.1 nM |

More lines, in order of falling IC50 [1], values ahead:

| IC50 [1] | IC50 [2] | SMILES |
| --- | --- | --- |
| 3 nM | 2 nM | C[C@]12C[C@H](c3ccc(/C=C/CNC(=O)NCC(=O)O)cc3)C3=C4CCC(=O)C=C4CCC3C1CC[C@@]2(O)C(F)(F)C(F)(F)F (stereo partly drawn) [Example 52, 3-(3-{(E)-3-[4-((8S,11R,13S,14S,17S)-17-hydroxy-13-methyl-3-oxo-17-pentafluoroethyl-2,3,6,7,8,11,12,13,14,15,16,17-dodecahydro-1H-cyclopenta[a]phenanthren-11-yl)phenyl]allyl}ureido)acetic acid] |
| 1 nM | 1 nM | Cc1nc(/C=C/c2cccc([C@H]3C[C@@]4(C)[C@@H](CC[C@@]4(O)C(F)(F)C(F)(F)F)[C@@H]4CCC5=CC(=O)CCC5=C43)c2)cs1 [Example 24, (8S,11R,13S,14S,17S)-17-hydroxy-13-methyl-11-{3-[(E)-2-(2-methylthiazol-4-yl)vinyl]phenyl}-17-pentafluoroethyl-1,2,6,7,8,11,12,13,14,15,16,17-dodecahydrocyclopenta[a]phenanthren-3-one] |
| 0.1 nM | 0.1 nM | CC(C)(C)NC(=O)NC/C=C/c1ccc([C@H]2C[C@@]3(C)C(CC[C@@]3(O)C(F)(F)C(F)(F)F)C3CCC4=CC(=O)CCC4=C32)cc1 (some centres unmarked) [Example 41] |
| 0.1 nM | 0.09 nM | C[C@]12C[C@H](c3ccc(C=NOCc4ccccc4)cc3)C3=C4CCC(=O)C=C4CC[C@H]3[C@@H]1CC[C@@]2(O)C(F)(F)C(F)(F)F [Example 35, 4-((8S,11R,13S,14S,17S)-17-hydroxy-13-methyl-3-oxo-17-pentafluoroethyl-2,3,6,7,8,11,12,13,14,15,16,17-dodecahydro-1H-cyclopenta[a]phenanthren-11-yl)benzaldehyde O-benzyl oxime] |
| 0.1 nM | 0.8 nM | CSc1ccc(/C=C/c2ccc([C@H]3C[C@@]4(C)[C@@H](CC[C@@]4(O)C(F)(F)C(F)(F)F)[C@@H]4CCC5=CC(=O)CCC5=C43)cc2)cc1 [Example 33, (8S,11R,13S,14S,17S)-17-hydroxy-13-methyl-11-{4-[(E)-2-(4-methylsulphanylphenyl)vinyl]phenyl}-17-pentafluoroethyl-1,2,6,7,8,11,12,13,14,15,16,17-dodecahydrocyclopenta[a]phenanthren-3-one] |
| 0.09 nM | 0.1 nM | COC(=O)c1ccc(/C=C/c2ccc([C@H]3C[C@@]4(C)[C@@H](CC[C@@]4(O)C(F)(F)C(F)(F)F)[C@@H]4CCC5=CC(=O)CCC5=C43)cc2)cc1 [Example 31, 4-{(E)-2-[4-((8S,11R,13S,14S,17S)-17-hydroxy-13-methyl-3-oxo-17-pentafluoroethyl-2,3,6,7,8,11,12,13,14,15,16,17-dodecahydro-1H-cyclopenta[a]phenanthren-11-yl)phenyl]vinyl}benzoic acid methyl ester] |
| 0.011 nM | < 0.01 nM | CCOC(=O)/C=C/C=C/c1ccc([C@H]2C[C@@]3(C)[C@@H](CC[C@@]3(O)C(F)(F)C(F)(F)F)[C@@H]3CCC4=CC(=O)CCC4=C32)cc1 [Example 15, (2E,4E)-5-[4-((8S,11R,13S,14S,17S)-17-hydroxy-13-methyl-3-oxo-17-pentafluoroethyl-2,3,6,7,8,11,12,13,14,15,16,17-dodecahydro-1H-cyclopenta[a]phenanthren-11-yl)phenyl]penta-2,4-dienoic acid ethyl ester] |
